# Columns and labels:
# [1] = target: T1, TRPV1 receptor (Rattus norvegicus, UniProt O35433); assay: Inhibition of the current induced by capsaicin with regard to rat DRGs (whole cell patch clamp); format: cell-based; conditions: DRG neuron; % inhibition of the control capsaicin (300 nM) response; compound at 10 nM; primary culture of newborn rat DRG neurons; read-out: % Inhibition by the DRG patch technique
# T1 construct: The neurons of the DRG naturally express the TRPV1 receptor; endogenous in cells; host or cells: primary culture of newborn rat dorsal root ganglion (DRG) neurons
# Description: Test of the Inhibition of the Current Induced by Capsaicin with Regard to Rat DRGs
# Primary Culture of Rat Dorsal Route Ganglion (DRG) Cells:
# The neurons of the DRG naturally express the TRPV1 receptor.
# Primary cultures of DRGs of newborn rats are prepared from 1-day-old rats. Briefly, after dissection, the ganglions are trypsinized and their cells dissociated mechanically by gentle trituration. […]
# The measurement chambers (volume 800 μl) comprising the cell preparation are placed on the stage of an inverted microscope (Olympus IMT2) equipped with Hoffman optics (Modulation Contrast, New York) and are observed at a magnification of 400×. […] The overall currents (membrane potential set at −60 mV) are recorded with an Axopatch 1D amplifier (Axon Instruments, Foster City, Calif.) connected to a PC controlled by Pclamp8 software (Axon Instruments). The current plots are recorded on paper and simultaneously recorded digitally (sampling frequency 15 to 25 Hz) and acquired on the hard disk of the PC.
# The application of a 300 nM capsaicin solution produces an incoming cationic current with regard to the DRG cells (voltage set at −70 mV). […] The results are expressed as % of inhibition of the control capsaicin response.
# [2] = target: T2, TRPV1 receptors (Mus musculus, UniProt Q704Y3); assay: Mouse corneal irritation test (capsaicin ocular instillation); format: in vivo; conditions: percentage of protection against rubbing of the eye induced by 2 μl of 160 μM capsaicin, pretreatment time 1 h
# T2 construct: from tissue; host or cells: living mouse, cornea (C fibers)
# Description: Mouse Corneal Irritation Test
# The irritating nature of capsaicin is easily assessed on the cornea since this organ is one of the most innervated by C fibers. In this context, according to preliminary experiments, the application of a very small amount of capsaicin (2 μl at a concentration of 160 μM) at the surface of the cornea of an animal results in a number of kinds of stereotyped behavior related to irritation which are easy to record. These include: blinking of the eye, rubbing of the instilled eye by the ipsilateral front paw, rubbing of the face with the two front paws and scratching of the ipsilateral face by the hind paw. […] Its appearance is furthermore also normal. […] It may be concluded therefrom that the duration of action of capsaicin at these doses is less than 2 minutes. […]
# In practice, the test product is administered orally and, with a delay (pretreatment time: t) which depends on the pharmacokinetic data, the animal receives the ocular instillation of 2 μl of a 160 μM capsaicin solution prepared as indicated above. During observation for 2 minutes following the instillation, the number of rubbing actions on the instilled eye by the ipsilateral front paw is recorded.
# For a given animal, the percentage of protection is calculated as follows: P=100−((number of scratching actions observed/mean number of scratching actions of the group treated with the solvent)×100). […]
# T1 sequence (O35433 whole entry): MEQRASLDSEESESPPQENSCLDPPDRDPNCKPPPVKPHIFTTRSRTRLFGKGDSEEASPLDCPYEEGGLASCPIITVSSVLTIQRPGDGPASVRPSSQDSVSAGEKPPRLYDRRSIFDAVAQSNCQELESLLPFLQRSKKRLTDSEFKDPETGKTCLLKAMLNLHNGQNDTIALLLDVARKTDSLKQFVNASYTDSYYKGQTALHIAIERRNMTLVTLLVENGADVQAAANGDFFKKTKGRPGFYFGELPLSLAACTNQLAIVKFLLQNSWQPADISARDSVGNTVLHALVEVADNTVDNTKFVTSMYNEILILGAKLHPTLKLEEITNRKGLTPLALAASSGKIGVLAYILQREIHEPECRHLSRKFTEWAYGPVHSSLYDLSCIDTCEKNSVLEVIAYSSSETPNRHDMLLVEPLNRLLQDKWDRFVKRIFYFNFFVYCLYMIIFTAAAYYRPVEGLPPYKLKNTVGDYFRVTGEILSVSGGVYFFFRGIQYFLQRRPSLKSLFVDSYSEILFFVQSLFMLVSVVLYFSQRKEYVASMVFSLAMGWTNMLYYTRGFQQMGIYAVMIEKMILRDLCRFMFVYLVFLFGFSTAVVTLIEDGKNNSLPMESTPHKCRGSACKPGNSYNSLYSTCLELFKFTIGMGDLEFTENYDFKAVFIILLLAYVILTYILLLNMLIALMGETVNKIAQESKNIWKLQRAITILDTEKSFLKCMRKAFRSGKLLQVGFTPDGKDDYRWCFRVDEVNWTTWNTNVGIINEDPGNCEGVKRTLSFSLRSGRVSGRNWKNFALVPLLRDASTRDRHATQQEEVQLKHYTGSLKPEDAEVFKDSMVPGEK
# T2 sequence (Q704Y3 whole entry): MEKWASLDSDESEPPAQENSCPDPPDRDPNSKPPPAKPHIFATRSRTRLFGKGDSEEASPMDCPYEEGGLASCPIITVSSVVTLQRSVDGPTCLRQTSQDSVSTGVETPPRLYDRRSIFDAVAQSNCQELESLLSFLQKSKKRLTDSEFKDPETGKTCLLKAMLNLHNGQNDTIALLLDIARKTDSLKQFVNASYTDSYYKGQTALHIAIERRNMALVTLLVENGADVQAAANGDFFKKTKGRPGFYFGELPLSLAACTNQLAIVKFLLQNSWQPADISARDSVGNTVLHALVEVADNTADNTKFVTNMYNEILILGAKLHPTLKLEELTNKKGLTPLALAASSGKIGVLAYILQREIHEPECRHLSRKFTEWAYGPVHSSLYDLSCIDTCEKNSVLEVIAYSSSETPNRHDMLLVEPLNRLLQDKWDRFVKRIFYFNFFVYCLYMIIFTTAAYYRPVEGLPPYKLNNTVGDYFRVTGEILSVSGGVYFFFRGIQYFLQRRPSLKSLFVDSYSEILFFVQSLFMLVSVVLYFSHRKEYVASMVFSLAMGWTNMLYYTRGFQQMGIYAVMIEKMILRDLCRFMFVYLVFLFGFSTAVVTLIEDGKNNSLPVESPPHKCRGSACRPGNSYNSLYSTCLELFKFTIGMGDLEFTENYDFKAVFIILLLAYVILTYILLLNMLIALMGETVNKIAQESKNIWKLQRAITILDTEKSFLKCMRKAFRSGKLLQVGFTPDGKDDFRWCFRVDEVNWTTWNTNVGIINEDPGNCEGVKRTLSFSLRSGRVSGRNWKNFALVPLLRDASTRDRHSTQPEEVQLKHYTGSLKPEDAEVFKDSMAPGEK
smiles,measurement,setting,value
"Cn1ccc2cc(NC(=O)c3cc4ccccc4n3Cc3cccc(C(F)(F)F)c3)ccc21 [Compound No. 1, N-(1-Methyl-1H-indol-5-yl)-1-(3-trifluoromethylbenzyl)-1H-indole-2-carboxamide]",inhibition at 0.01 µM,[1],56%
same,% P - (t) at 60 mg/kg (p.o.) - (n = 8),[2],26% - (1 h)

# — patent publication US7781477B2, “Therapeutic use of N-(1H-Indolyl)-1H-indole-2-carboxamide derivatives” (Sanofi-Aventis, priority 2004, dated 2010)
